What was measured:
αSYN pathology = molecular target: T1, αSYN pathology (Homo sapiens, UniProt P37840); assay: in vitro autoradiography on human brain slices with αSYN pathology (MSA, PD); assay type: binding; conditions: 10 nM tracer, NSB with 10 µM non-radioactive compound
T1 construct: tissue Neurobiobank München (NBM, Munich, Germany); host or cells: post-mortem human brain slices (MSA cerebellum, PD frontal cortex, controls)
Method: Post-mortem human brain slices (10 µm thickness) were obtained from and the subject cases were analyzed by the Neurobiobank München (NBM, Munich, Germany), where tissues were collected on the basis of written informed consent according to the guidelines of the ethics committee of the Ludwig-Maximilians-University Munich, Germany (# 345-13). The use of brain tissue samples in this study was approved by the ethics committee of the Faculty of Medicine at the University of Tuebingen (Ethics approval number: 813/2018BO2). Table 1 summarizes the information of the subjects from which samples were obtained and used in the experiment.
For autoradiography, brain slices were thawed for one hour before preincubation in BSA buffer for 25 minutes at room temperature. To determine total binding (TB), brain slices were incubated with the tracer (10 nM [^18F]PFSB, 10 nM [^18F]MFSB). […]
Quantitative data analysis was performed by drawing four regions of interest (ROIs) in relevant areas of the slice and one ROI next to it for background subtraction (imaged 1.8.0_172, National Institute of Health, Bethesda, Maryland, USA) (Schneider, C. A. et al., NIH Image to imaged: 25 years of image analysis; Nat Methods 2012, 9 (7), 671-5). […] The SB disease/SB control ratio was calculated by dividing by the SB in diseased tissues with the respective SB in control tissues.

[1] = in vivo dynamic PET/MR imaging, pharmacokinetic profile; conditions: healthy wild-type mice, i.v.
Method: The animal experiments were performed in compliance to the European directives on the protection and use of laboratory animals (Council Directive 2010/63/UE) and the German animal welfare act with approval from the local authorities (Regierungspräsidium Tuebingen, R3/19G). Three healthy wild-type female C57BU6J mice (20.3 ± 0.9 g; 9 weeks old) purchased from Charles River Laboratories (Sulzbach, Germany) were maintained in a vivarium on a 12:12 hour light dark cycle and were kept at a temperature of 22°C with 40-60% humidity and free access to a standard diet and tap water.
The mice (n = 3) were anaesthetized with 1.5% isoflurane evaporated in 100% oxygen at a flow rate of 0.8 L/min. Body temperature of 37°C was maintained using a feedback temperature control unit. PET imaging studies were performed on Inveon dedicated microPET system (Inveon D-PET, Siemens, Knoxville, TN, USA). Five seconds after the start of PET acquisition, mice were injected intravenously with 9.9 ± 0.6 MBq of [^18F]MFSB (Am = 46.2 ± 2.5 GBq/µmol at time of injection). The one-hour dynamic acquisitions were divided into 39 time frames (12×5 s, 6×10 s, 6×30 s, 5×60 s and 10×300 s). A 13-minute transmission measurement with a cobalt-57 point source was performed for attenuation correction. Subsequently, an anatomical magnetic resonance (MR) scan with a 7 Tesla MR scanner (ClinScan, Bruker BioSpin MRI GmbH, Ettlingen, Germany) using a rat whole-body volume coil and the Paravision software (v6.0.1, Bruker, Ettlingen, Germany) using a T2-weighted Turbo-RARE MRI sequence.
The PET image was reconstructed via the OSEM3D/SP-MAP reconstruction algorithm and coregistered to the whole-body MRI scan. […] Standardized uptake values (SUVs) were calculated as a ratio of the detected activity with injected activity and weight (SUV = (TAC (kBq/cc) / inj. activity (kBq)) * weight (g)).

[18F]c1ccc2nc(/C=C/c3ccc(N4CCOCC4)cc3)sc2c1 [[^18F]MFSB]
SB disease/SB control, MSA1/cerebellum ctrl (αSYN pathology): 1.20 | crossing of the BBB ([1]; dynamic PET/MR over 60 min): crossing of the BBB was successful | kidney uptake ([1]; dynamic PET/MR over 60 min): Significant kidney uptake | SUV in lungs and liver ([1]; first 2 min): ≈ 5

Reference: patent publication EP4438597A1, “2-STYRYLBENZOTHIAZOLE DERIVATIVES AS A-SYNUCLEIN BINDING COMPOUNDS” (Eberhard Karls Universität Tübingen Medizinische Fakultät, priority 2023, dated 2024)
